Like-named read-outs stand apart in the source and are kept apart here.
Experiments:
[1] = target: T1, human STING (HAQ) (Homo sapiens, UniProt Q86WV6, G230A/H232R/R293Q); assay: biochemical; format: binding; conditions: for ΔTm at 100 µM: read-out: DSF huSTING (HAQ) ΔTm (° C.)
Procedure: (§1) DSF monitors thermal unfolding of protein in the presence of a fluorescent dye and is typically performed using a real-time PCR instrument. The temperature at which a protein unfolds is measured by an increase in the fluorescence of a dye with affinity for hydrophobic parts of the protein that are gradually exposed during unfolding. The fluorescence of the dye is quenched in aqueous environments, but when the dye associates with hydrophobic sites on the unfolded protein, its fluorescence increases. The fluorescence intensity is plotted as a function of the temperature, generating a sigmoidal curve that can be described by a two-state transition. The inflection point of the transition curve (Tm) is calculated using simple equations such as that of Boltzman.
(§2) Sealed plates were then placed into a Bio-Rad CFX96/C1000 thermocycler and FRET scanning mode (λ^excitation of 490 nm and reads at λ^emission of 570 nm) was used to measure fluorescence intensity. […] The melting point (Tm) obtained for STING protein alone was subtracted from Tm obtained for protein incubated with ligand to generate ΔTm values listed in the table below.
(§3) These additional compounds were tested as described above, however the protein concentration was 2 μM.

[2] = target: T2, huSTING (WT) (Homo sapiens (Human), UniProt Q86WV6, H232R); assay: Differential scanning fluorimetry (DSF), huSTING (WT); format: binding; conditions: for ΔTm at 100 µM: read-out: DSF huSTING (WT) ΔTm (° C.)
Procedure: as §1, §2, §3
Target sequence in this assay (Q86WV6 other isoform, or with tags, fused parts or gaps, stated change not applied): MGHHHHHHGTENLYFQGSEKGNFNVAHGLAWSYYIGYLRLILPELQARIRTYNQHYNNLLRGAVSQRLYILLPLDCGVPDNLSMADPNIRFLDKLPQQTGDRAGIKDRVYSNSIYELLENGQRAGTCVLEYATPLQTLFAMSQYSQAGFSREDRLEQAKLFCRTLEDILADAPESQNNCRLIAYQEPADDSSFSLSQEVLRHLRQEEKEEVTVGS

[3] = target: T1, human STING (HAQ); conditions: read-out: SPR (HAQ) KD; 25° C.
[4] = target: huSTING (HAQ) (Homo sapiens (Human), UniProt Q86WV6, G230A/H232R/R293Q/R71H); assay: THP-1 reporter cell line assay, THP-1 STING Lucia ISG cells; format: cell-based
[5] = target: T2, huSTING (WT); assay: THP-1 reporter cell line assay, THP-1-Dual KI-hSTING-R232 cells; format: cell-based
Target sequence in this assay (Q86WV6 whole entry H232R): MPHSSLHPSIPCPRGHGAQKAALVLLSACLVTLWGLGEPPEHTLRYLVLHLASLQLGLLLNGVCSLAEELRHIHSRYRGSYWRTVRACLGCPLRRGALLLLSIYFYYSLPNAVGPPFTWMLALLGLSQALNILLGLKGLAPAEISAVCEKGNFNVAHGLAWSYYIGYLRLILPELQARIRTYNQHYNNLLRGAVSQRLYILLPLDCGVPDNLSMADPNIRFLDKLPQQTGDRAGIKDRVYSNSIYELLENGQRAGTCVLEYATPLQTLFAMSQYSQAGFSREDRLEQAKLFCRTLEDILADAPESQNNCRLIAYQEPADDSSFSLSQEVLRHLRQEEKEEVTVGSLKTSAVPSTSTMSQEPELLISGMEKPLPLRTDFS

[6] = 1 μM protein, compound at 100 μM
[7] = THP-1 STING Lucia ISG cells, 24 h, top concentration 50 μM, read-out: Cellular EC50 huSTING (HAQ)
[8] = read-out: Cellular EC50 huSTING (WT)

Chain of huSTING (HAQ) (Q86WV6 whole entry R71H/G230A/H232R/R293Q): as the sequence (Q86WV6 whole entry H232R) above, with R71H, G230A, R293Q counted along it
T1 sequence (Q86WV6 whole entry G230A/H232R/R293Q, looked up): as the sequence (Q86WV6 whole entry H232R) above, with G230A, R293Q counted along it

| Compound | DSF huSTING (HAQ) ΔTm (° C.) [1, 6] | ΔTm at 100 µM [1] | ΔTm at 100 µM [2, 6] | EC50 [4, 7] | EC50 [5, 8] | further results |
| --- | --- | --- | --- | --- | --- | --- |
| N#Cc1cccc2sc(C(=O)O)c(COc3ccc(C(N)=O)cc3)c12 [Example 63, 3-((4-Carbamoylphenoxy)methyl)-4-cyanobenzo[b]thiophene-2-carboxylic acid] | 8.07 °C | – | – | – | – | ΔTm at 100 µM [2]: 1.88 °C; Kd [3]: 9.15 µM |
| NC(=O)c1ccc(OCc2c(C(=O)O)sc3cccc(Cl)c23)c(F)c1F [Example 67, 3-((4-Carbamoyl-2,3-difluorophenoxy)methyl)-4-chlorobenzo[b]thiophene-2-carboxylic acid] | – | 11.1 °C | 3.04 °C | > 50 µM | > 50 µM | – |
| NC(=O)c1cc(F)c(OCc2c(C(=O)O)sc3cccc(Cl)c23)c(F)c1 [Example 69, 3-((4-Carbamoyl-2,6-difluorophenoxy)methyl)-4-chlorobenzo[b]thiophene-2-carboxylic acid] | 22.08 °C | – | – | – | – | ΔTm at 100 µM [2]: 9.49 °C |
| COc1cc(C(N)=O)cc(C)c1OCc1c(C(=O)O)sc2cccc(Cl)c12 [Example 73, 3-((4-carbamoyl-2-methoxy-6-methylphenoxy)methyl)-4-chlorobenzo[b]thiophene-2-carboxylic acid] | 1.79 °C | – | – | – | – | ΔTm at 100 µM [2]: -1.03 °C; Kd [3]: 67 µM |
| NC(=O)c1ccc(NCc2c(C(=O)O)sc3cccc(Cl)c23)cc1 [Example 76, 3-(((4-Carbamoylphenyl)amino)methyl)-4-chlorobenzo[b]thiophene-2-carboxylic acid] | – | 2.43 °C | -2.72 °C | 2.68 µM | 0.217 µM | – |
| Cc1cccc2sc(C(=O)O)c(COc3ccc(C(N)=O)cc3)c12 [Example 78, 3-((4-Carbamoylphenoxy)methyl)-4-methylbenzo[b]thiophene-2-carboxylic acid] | – | 16 °C | 6.62 °C | > 50 µM | > 50 µM | – |
| NC(=O)c1cc(F)c(OCc2c(C(=O)O)sc3c(F)ccc(F)c23)c(F)c1 [Example 80, 3-((4-Carbamoyl-2,6-difluorophenoxy)methyl)-4,7-difluorobenzo[b]thiophene-2-carboxylic acid] | – | 14.9 °C | 6.69 °C | 38.6 µM | > 50 µM | – |
| NC(=O)c1ccc(OCc2c(C(=O)O)sc3c(F)ccc(F)c23)cc1 [Example 82, 3-((4-Carbamoylphenoxy)methyl)-4,7-difluorobenzo[b]thiophene-2-carboxylic acid] | – | 9.29 °C | 3.15 °C | > 50 µM | > 50 µM | – |
| NC(=O)c1ccc(OCc2c(C(=O)O)sc3ccc(F)c(Cl)c23)cc1 [Example 84, 3-((4-Carbamoylphenoxy)methyl)-4-chloro-5-fluorobenzo[b]thiophene-2-carboxylic acid] | – | 6.48 °C | 0.18 °C | > 50 µM | > 50 µM | – |
| NC(=O)c1cc(F)c(OCc2c(C(=O)O)sc3ccc(F)c(Cl)c23)c(F)c1 [Example 86, 3-((4-Carbamoyl-2,6-difluorophenoxy)methyl)-4-chloro-5-fluorobenzo[b]thiophene-2-carboxylic acid] | – | 10.1 °C | 3.33 °C | > 50 µM | > 50 µM | – |
| CCOC(=O)c1sc2cccc(F)c2c1CCc1ccc(C(N)=O)cc1 [Example 87, Ethyl 3-(4-carbamoylphenethyl)-4-fluorobenzo[b]thiophene-2-carboxylate] | 0.54 °C | – | – | > 50 µM | > 50 µM | Kd [3]: 3000 µM |
| CCOP(=O)(COC(=O)c1sc2cccc(Cl)c2c1COc1c(F)cc(C(N)=O)cc1F)OCC [Example 143, (Diethoxyphosphoryl)methyl 3-((4-carbamoyl-2,6-difluorophenoxy)methyl)-4-chlorobenzo[b]thiophene-2-carboxylate] | – | – | – | – | – | DSF huSTING (HAQ) ΔTm (° C.) [1]: −2.10 °C; DSF huSTING (WT) ΔTm (° C.) [2]: −1.93 °C; EC50 [4]: 0.018 µM; EC50 [5]: 0.381 µM |
| COCCOC(=O)c1sc2cccc(Cl)c2c1COc1c(F)cc(C(N)=O)cc1F [Example 158, 2-Methoxyethyl 3-((4-carbamoyl-2,6-difluorophenoxy)methyl)-4-chlorobenzo[b]thiophene-2-carboxylate] | – | – | – | – | – | DSF huSTING (HAQ) ΔTm (° C.) [1]: −1.58 °C; DSF huSTING (WT) ΔTm (° C.) [2]: −1.90 °C; EC50 [4]: 0.132 µM; EC50 [5]: 0.949 µM |
